Data published in ChEMBL document CHEMBL3872235, “Synthesis and biological evaluation of allylated mono-carbonyl analogues of curcumin (MACs) as anti-cancer agents for cholangiocarcinoma” (Bioorg Med Chem Lett, 2016).

Key:
[1] = Cytotoxicity against RBEC assessed as decrease in cell viability after 24 hrs by MTT assay; format: toxicity; conditions: rat, RBEC cells
[2] = Cytotoxicity against RBEC assessed as cell survival at 20 uM after 24 hrs by MTT assay; format: toxicity; conditions: rat, RBEC cells; read-out: Survival
[3] = Drug degradation in phosphate buffer at pH 7.4 measured up to 25 mins by UV-Vis spectral analysis; format: physicochemical; conditions: for Stability: buffer, pH 7.4, 25 min
[4] = Cytotoxicity against HUCCA cells assessed as decrease in cell viability after 24 hrs by MTT assay; format: functional, cell-based; conditions: Homo sapiens
[5] = Cytotoxicity against human QBC939 cells assessed as decrease in cell viability after 24 hrs by MTT assay; format: functional, cell-based; conditions: QBC939, 24 h
[6] = Cell cycle arrest in RBEC cells assessed as accumulation at G2/M phase at 20 uM after 24 hrs by flow cytometric analysis; format: cell-based; conditions: rat
[7] = Increase in p53 expression in RBEC at 20 uM after 24 hrs by Western blot analysis; format: ADME; conditions: rat
[8] = Decrease in Cdc2 expression in RBEC at 20 uM after 24 hrs by Western blot analysis; conditions: rat
[9] = Induction of apoptosis in HUCCA cells at 20 uM after 24 hrs by annexin V/propidium iodide staining based flow cytometry (reference value: 9.6%); format: functional, Homo sapiens
[10] = Induction of apoptosis in RBEC at 20 uM after 24 hrs by annexin V/propidium iodide staining based flow cytometry (reference value: 2.3%); conditions: rat
[11] = Induction of apoptosis in human QBC939 cells at 20 uM after 24 hrs by annexin V/propidium iodide staining based flow cytometry (reference value: 2.21%); format: functional
[12] = Cytotoxicity against human HL7702 cells assessed as decrease in cell viability after 24 hrs by MTT assay; format: functional, cell-based; conditions: L02, 24 h
[13] = Cytotoxicity against HIBEC assessed as decrease in cell viability after 24 hrs by MTT assay; format: toxicity; conditions: human, HIBEC cells
[14] = Cell cycle arrest in HUCCA cells assessed as accumulation at G2/M phase after 24 hrs by flow cytometric analysis; format: functional, cell-based; conditions: Homo sapiens
[15] = Cell cycle arrest in human QBC939 cells assessed as accumulation at G2/M phase after 24 hrs by flow cytometric analysis; format: functional, cell-based
[16] = Cell cycle arrest in RBEC cells assessed as accumulation at G2/M phase after 24 hrs by flow cytometric analysis; format: ADME, cell-based; conditions: rat
HUCCA [17] = assay: Increase in p53 expression in HUCCA cells after 24 hrs by Western blot analysis; format: functional, cell-based; conditions: Homo sapiens
[18] = Decrease in Cdc2 expression in HUCCA cells after 24 hrs by Western blot analysis; format: functional, cell-based; conditions: Homo sapiens
[19] = Increase in p53 expression in RBEC after 24 hrs by Western blot analysis; conditions: rat
[20] = Decrease in Cdc2 expression in RBEC after 24 hrs by Western blot analysis; format: ADME; conditions: rat
QBC939 [21] = assay: Increase in p53 expression in human QBC939 cells after 24 hrs by Western blot analysis; format: functional, cell-based
[22] = Decrease in Cdc2 expression in human QBC939 cells after 24 hrs by Western blot analysis; format: functional, cell-based
[23] = Induction of apoptosis in HUCCA cells at 5 uM after 24 hrs by annexin V/propidium iodide staining based flow cytometry (reference value: 9.6%); format: functional, Homo sapiens
[24] = Induction of apoptosis in HUCCA cells at 7.5 uM after 24 hrs by annexin V/propidium iodide staining based flow cytometry (reference value: 9.6%); format: functional, Homo sapiens
[25] = Induction of apoptosis in HUCCA cells at 10 uM after 24 hrs by annexin V/propidium iodide staining based flow cytometry (reference value: 9.6%); format: functional, Homo sapiens
[26] = Induction of apoptosis in RBEC at 5 uM after 24 hrs by annexin V/propidium iodide staining based flow cytometry (reference value: 2.3%); conditions: rat
[27] = Induction of apoptosis in RBEC at 7.5 uM after 24 hrs by annexin V/propidium iodide staining based flow cytometry (reference value: 2.3%); conditions: rat
[28] = Induction of apoptosis in RBEC at 10 uM after 24 hrs by annexin V/propidium iodide staining based flow cytometry (reference value: 2.3%); conditions: rat
[29] = Induction of apoptosis in human QBC939 cells at 5 uM after 24 hrs by annexin V/propidium iodide staining based flow cytometry (reference value: 2.21%); format: functional
[30] = Induction of apoptosis in human QBC939 cells at 7.5 uM after 24 hrs by annexin V/propidium iodide staining based flow cytometry (reference value: 2.21%); format: functional
[31] = Induction of apoptosis in human QBC939 cells at 10 uM after 24 hrs by annexin V/propidium iodide staining based flow cytometry (reference value: 2.21%); format: functional
HUCCA [32] = assay: Induction of apoptosis in HUCCA cells after 24 hrs by annexin V/propidium iodide staining based flow cytometry; format: functional, cell-based; conditions: Homo sapiens
[33] = Induction of apoptosis in RBEC after 24 hrs by annexin V/propidium iodide staining based flow cytometry; conditions: rat
QBC939 [34] = assay: Induction of apoptosis in human QBC939 cells after 24 hrs by annexin V/propidium iodide staining based flow cytometry; format: functional, cell-based
HUCCA [35] = assay: Induction of apoptosis in HUCCA cells assessed as increase in Bax protein expression after 24 hrs by Western blot analysis; format: functional, cell-based; conditions: Homo sapiens
[36] = Induction of apoptosis in RBEC assessed as increase in Bax protein expression after 24 hrs by Western blot analysis; conditions: rat
QBC939 [37] = assay: Induction of apoptosis in human QBC939 cells assessed as increase in Bax protein expression after 24 hrs by Western blot analysis; format: functional, cell-based
HUCCA [38] = assay: Induction of apoptosis in HUCCA cells assessed as decrease in Bcl-2 protein expression after 24 hrs by Western blot analysis; format: functional, cell-based; conditions: Homo sapiens
[39] = Induction of apoptosis in RBEC assessed as decrease in Bcl-2 protein expression after 24 hrs by Western blot analysis; conditions: rat
QBC939 [40] = assay: Induction of apoptosis in human QBC939 cells assessed as decrease in Bcl-2 protein expression after 24 hrs by Western blot analysis; format: functional, cell-based
HUCCA [41] = assay: Induction of apoptosis in HUCCA cells assessed as decrease in PARP cleavage after 24 hrs by Western blot analysis; format: functional, cell-based; conditions: Homo sapiens

With `C=CCc1cc(/C=C2\COC/C(=C\c3ccc(O)c(CC=C)c3)C2=O)ccc1O` the IC50 at 24 h [1] was 15 µM, the viability at 24 h, 20 µM [2] was < 50% and the Stability [3] was “Stable”.
In the case of `O=c1[nH]cc(F)c(=O)[nH]1` [FLUOROURACIL], the IC50 [4] is reported as 13.4 µM, the IC50 [5] is reported as 16.1 µM and the IC50 at 24 h [1] is reported as 19.3 µM.
In the case of `C=CCc1cc(/C=C2\CCC/C(=C\c3ccc(O)c(CC=C)c3)C2=O)ccc1O`, the viability at 24 h, 20 µM [2] is reported as < 50%.
In the case of `C=CCc1cc(/C=C2\CN(S(=O)(=O)CCC)C/C(=C\c3ccc(O)c(CC=C)c3)C2=O)ccc1O`, the viability at 24 h, 20 µM [2] is reported as < 50%.
For `C=CCc1cc(/C=C2\CC/C(=C\c3ccc(O)c(CC=C)c3)C2=O)ccc1O`, the IC50 at 24 h [1] was 10.7 µM and the Stability [3] was “Stable”.
In the case of `C=CCc1cc(/C=C2\CNC/C(=C\c3ccc(O)c(CC=C)c3)C2=O)ccc1O`, the viability at 24 h, 20 µM [2] is reported as < 50%.
In the case of `C=CCc1cc(/C=C2\CN(C(C)C)C/C(=C\c3ccc(O)c(CC=C)c3)C2=O)ccc1O`, the viability at 24 h, 20 µM [2] is reported as < 50%.
For `COc1cc(/C=C/C(=O)CC(=O)/C=C/c2ccc(O)c(OC)c2)ccc1O` [CURCUMIN], the degraded at 25 min ([3]; phosphate buffer, pH 7.4, read-out: Drug degradation) was 50%, the Activity [6] was “Non-Toxic” and the Activity [7] was “Non-Toxic”. The Activity [8] was “Non-Toxic”, the Activity [9] was 21.7% and the Activity [10] was 27.6%. For the same molecule, the Activity [11] was 18.5%.
In the case of `C=CCc1cc(/C=C2\CN(C(=O)c3ccccc3)C/C(=C\c3ccc(O)c(CC=C)c3)C2=O)ccc1O`, the viability at 24 h, 20 µM [2] is reported as < 50%.
For `C=CCc1cc(/C=C2\CN(C3CC3)C/C(=C\c3ccc(OC(C)(C)C)cc3)C2=O)ccc1O`, the viability at 24 h, 20 µM [2] was < 50%.
In the case of `C=CCc1cc(/C=C2\CN(C3CC3)C/C(=C\c3ccc(O)c(CC=C)c3)C2=O)ccc1O`, the IC50 at 24 h [1] is reported as 14.4 µM and the viability at 24 h, 20 µM [2] is reported as < 50%.
`C=CCc1cc(/C=C2\CSC/C(=C\c3ccc(O)c(CC=C)c3)C2=O)ccc1O` showed an IC50 [4] of 8.7 µM, an IC50 [5] of 9.3 µM and an IC50 at 24 h [1] of 8.1 to 8.9 µM. For the same molecule, the IC50 [12] was 9.7 µM, the IC50 at 24 h [13] was 9.8 µM and the viability at 24 h, 20 µM [2] was < 50%. The Stability [3] was “Stable”, the Activity [14] was “Dose-dependent effect” and the Activity [15] was “Dose-dependent effect”. For the same molecule, the Activity [16] was “Dose-dependent effect”, the Activity (HUCCA [17]) was “Dose-dependent effect” and the Activity [18] was “Dose-dependent effect”. The Activity [19] was “Dose-dependent effect”, the Activity [20] was “Dose-dependent effect” and the Activity (QBC939 [21]) was “Dose-dependent effect”. For the same molecule, the Activity [22] was “Dose-dependent effect”, the Activity [23] was 19.4% and the Activity [24] was 31.8%. The Activity [25] was 41.6%, the Activity [26] was 9.3% and the Activity [27] was 13.9%. It also gave an Activity [28] of 39.9%, an Activity [29] of 7.6% and an Activity [30] of 15.8%. For the same molecule, the Activity [31] was 38.6%, the Activity (HUCCA [32]) was “Dose-dependent effect” and the Activity [33] was “Dose-dependent effect”. For the same molecule, the Activity (QBC939 [34]) was “Dose-dependent effect”, the Activity (HUCCA [35]) was “Dose-dependent effect” and the Activity [36] was “Dose-dependent effect”. The Activity (QBC939 [37]) was “Dose-dependent effect”, the Activity (HUCCA [38]) was “Dose-dependent effect” and the Activity [39] was “Dose-dependent effect”. The Activity (QBC939 [40]) was “Dose-dependent effect” and the Activity (HUCCA [41]) was “Dose-dependent effect”.
With `C=CCc1cc(/C=C2\CN(CCC)C/C(=C\c3cc(OC)c(OC)cc3OC)C2=O)ccc1O` the viability at 24 h, 20 µM [2] was < 50%.
